Assay: xn = mol fraction of the nth substance listed

C1CCCCC1 + CCCCCC
Conditions	viscosity [mPa·s]
298.1 K, 101 kPa, x1 = 0.2	0.356
298.1 K, 101 kPa, x1 = 0.4	0.409
298.1 K, 101 kPa, x1 = 0.5	0.442
298.1 K, 101 kPa, x1 = 0.6	0.484
298.1 K, 101 kPa, x1 = 0.8	0.609
298.15 K, 100 kPa, x1 = 0.201	0.34
298.15 K, 100 kPa, x1 = 0.4	0.4016
298.15 K, 100 kPa, x1 = 0.6	0.4934
298.15 K, 100 kPa, x1 = 0.8	0.6328
298.15 K, 101 kPa, x2 = 0.0684	0.791
298.15 K, 101 kPa, x2 = 0.1504	0.6857
298.15 K, 101 kPa, x2 = 0.212	0.6386
298.15 K, 101 kPa, x2 = 0.2942	0.5608
298.15 K, 101 kPa, x2 = 0.3691	0.5182
298.15 K, 101 kPa, x2 = 0.4469	0.4531
298.15 K, 101 kPa, x2 = 0.5365	0.4026
298.15 K, 101 kPa, x2 = 0.5903	0.3809
298.15 K, 101 kPa, x2 = 0.6702	0.3605
298.15 K, 101 kPa, x2 = 0.7634	0.3153
298.15 K, 101.33 kPa, x1 = 0.0907	0.3272
298.15 K, 101.33 kPa, x1 = 0.0958	0.317
298.15 K, 101.33 kPa, x1 = 0.1714	0.3405
298.15 K, 101.33 kPa, x1 = 0.1981	0.341
298.15 K, 101.33 kPa, x1 = 0.274	0.3831
298.15 K, 101.33 kPa, x1 = 0.2742	0.367
298.15 K, 101.33 kPa, x1 = 0.2966	0.367
298.15 K, 101.33 kPa, x1 = 0.3645	0.4001
298.15 K, 101.33 kPa, x1 = 0.3986	0.397
298.15 K, 101.33 kPa, x1 = 0.4469	0.4276
298.15 K, 101.33 kPa, x1 = 0.4498	0.4234
298.15 K, 101.33 kPa, x1 = 0.4972	0.436
298.15 K, 101.33 kPa, x1 = 0.533	0.4643
298.15 K, 101.33 kPa, x1 = 0.5873	0.4846
298.15 K, 101.33 kPa, x1 = 0.5972	0.484
298.15 K, 101.33 kPa, x1 = 0.6062	0.5023
298.15 K, 101.33 kPa, x1 = 0.6783	0.5445
298.15 K, 101.33 kPa, x1 = 0.6988	0.544
298.15 K, 101.33 kPa, x1 = 0.752	0.5887
298.15 K, 101.33 kPa, x1 = 0.7542	0.5997
298.15 K, 101.33 kPa, x1 = 0.7993	0.623
298.15 K, 101.33 kPa, x1 = 0.8297	0.6872
298.15 K, 101.33 kPa, x1 = 0.8977	0.73
298.15 K, 101.33 kPa, x1 = 0.9016	0.7533
298.15 K, 101.33 kPa, x1 = 0.9034	0.7347
298.15 K, 101.33 kPa, x1 = 0.9721	0.8499
303.15 K, 101 kPa, x1 = 0.1086	0.2975
303.15 K, 101 kPa, x1 = 0.2169	0.3225
303.15 K, 101 kPa, x1 = 0.3006	0.3441
303.15 K, 101 kPa, x1 = 0.4057	0.3765
303.15 K, 101 kPa, x1 = 0.5025	0.4141
303.15 K, 101 kPa, x1 = 0.6021	0.4621
303.15 K, 101 kPa, x1 = 0.7058	0.5242
303.15 K, 101 kPa, x1 = 0.7982	0.5925
303.15 K, 101 kPa, x1 = 0.8984	0.6941
303.15 K, 101.33 kPa, x1 = 0.0958	0.301
303.15 K, 101.33 kPa, x1 = 0.1981	0.324
303.15 K, 101.33 kPa, x1 = 0.2966	0.349
303.15 K, 101.33 kPa, x1 = 0.3986	0.378
303.15 K, 101.33 kPa, x1 = 0.4972	0.412
303.15 K, 101.33 kPa, x1 = 0.5972	0.454
303.15 K, 101.33 kPa, x1 = 0.6988	0.511
303.15 K, 101.33 kPa, x1 = 0.7993	0.58
303.15 K, 101.33 kPa, x1 = 0.8977	0.672
308.15 K, 101.33 kPa, x1 = 0.0958	0.288
308.15 K, 101.33 kPa, x1 = 0.1981	0.307
308.15 K, 101.33 kPa, x1 = 0.2966	0.33
308.15 K, 101.33 kPa, x1 = 0.3986	0.357
308.15 K, 101.33 kPa, x1 = 0.4972	0.389
308.15 K, 101.33 kPa, x1 = 0.5972	0.428
308.15 K, 101.33 kPa, x1 = 0.6988	0.479
308.15 K, 101.33 kPa, x1 = 0.7993	0.543
308.15 K, 101.33 kPa, x1 = 0.8977	0.623
323.15 K, 100 kPa, x1 = 0.201	0.266
323.15 K, 100 kPa, x1 = 0.4	0.309
323.15 K, 100 kPa, x1 = 0.6	0.3703
323.15 K, 100 kPa, x1 = 0.8	0.4573

Reference: the CheMixHub viscosity set
